# Data: the supplement of paper PMC11208160
# Experiment: recombinant UMI read abundance after kanamycin selection (control-corrected) (log10(CPM+1)); higher = more efficient recombination; extreme values may be limits of the assay; sequences stand for … in AGTGCAGAGAAAATCGGCCAGTTTTCTCTGCCTGCAGTCCGCATGCCGTGGGACCCCTTGGGTTCTAACCTGTTGCCTAGATTTATGCAGCGGACTGCCTTTCTCCCAAAGTGATAAACCGG…AGGTTGGTTTCACT; site = the 11-nt donor
# Procedure: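 Pooled E. coli donor-specificity screen for the IS621 bridge recombinase. Each library member carries a reprogrammed 11-nt donor and a full-length LE bridge RNA expressed in cis from the natural promoter, with a paired donor-binding loop (8-nt LDG + 4-nt RDG) and a target-binding loop fixed to T5. It is co-electroporated with a T5 target plasmid; recombinase is induced with 0.07 mM IPTG and recombinants are selected on kanamycin. UMIs are counted as CPM, averaged over two biological replicates and corrected by the unselected control. Molecule = full bridge RNA written as DNA, built from the T5 scaffold: LDG = donor specificity nt 1-8, RDG = reverse complement of nt 8-11.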
# 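Also: IS621 bridge recombinase in Escherichia coli cells against a fixed T5 target plasmid.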
row,Sequence,recombinant UMI read abundance (log10)
1,ACTGGAGCATGGACCGGTTTTCCCGGTAATCCGTATTTGCT (site ACTGGAGCTAG),1.86
2,ACTGGATCATGGACCGGTTTTCCCGGTAATCCGTATTTGAG (site ACTGGATCTCT),2.41
3,ACTGGATCATGGACCGGTTTTCCCGGTAATCCGTATTTGCA (site ACAGTATCTTG),0.973
4,ACTGGATCATGGACCGGTTTTCCCGGTAATCCGTATTTGCA (site ACTGGATCTTG),1.64
5,ACTGGGACATGGACCGGTTTTCCCGGTAATCCGTATTTGAG (site ACTGGGACTCT),1.39
6,ACTGGTACATGGACCGGTTTTCCCGGTAATCCGTATTTGAA (site ACTGGTACTTT),1.1
7,ACTGTATCATGGACCGGTTTTCCCGGTAATCCGTATTTGAA (site ACAGTATCTTG),0
8,ACTGTATCATGGACCGGTTTTCCCGGTAATCCGTATTTGAA (site ACTGTATCTTT),1.99
9,ACTGTATCATGGACCGGTTTTCCCGGTAATCCGTATTTGCA (site ACAGTATCTTG),1.82
10,ACTGTATCATGGACCGGTTTTCCCGGTAATCCGTATTTGCA (site ACCGTATCTTG),1.91
11,ACTGTATCATGGACCGGTTTTCCCGGTAATCCGTATTTGCA (site ACGGTATCTTG),1.96
12,ACTGTATCATGGACCGGTTTTCCCGGTAATCCGTATTTGCA (site ACTGTATCTTG),2.57
13,ACTTAGACATGGACCGGTTTTCCCGGTAATCCGTATTTGGT (site ACTTAGACTAC),1.15
14,ACTTGATCATGGACCGGTTTTCCCGGTAATCCGTATTTGCG (site ACTTGATCTCG),1.57
15,ACTTTAACATGGACCGGTTTTCCCGGTAATCCGTATTTGGT (site ACTTTAACTAC),0.85
16,AGAAAAACATGGACCGGTTTTCCCGGTAATCCGTATTTGCA (site AGAAAAACTTG),2.23
17,AGAAAAACATGGACCGGTTTTCCCGGTAATCCGTATTTGCA (site AGGAAGACTTG),0
18,AGAAAGGCATGGACCGGTTTTCCCGGTAATCCGTATTTGCC (site AGAAAGGCTAG),0
19,AGAAAGGCATGGACCGGTTTTCCCGGTAATCCGTATTTGCC (site AGAAAGGCTCG),0.784
20,AGAAAGGCATGGACCGGTTTTCCCGGTAATCCGTATTTGCC (site AGAAAGGCTGG),1.78
21,AGAAAGGCATGGACCGGTTTTCCCGGTAATCCGTATTTGCC (site AGAAAGGCTTG),1.79
22,AGAAAGGCATGGACCGGTTTTCCCGGTAATCCGTATTTGGT (site AGAAAGGCTAA),1.65

row,Sequence,recombinant UMI read abundance (log10)
1,AGAAAGGCATGGACCGGTTTTCCCGGTAATCCGTATTTGGT (site AGAAAGGCTAC),0.881
2,AGAAAGGCATGGACCGGTTTTCCCGGTAATCCGTATTTGGT (site AGAAAGGCTAG),0.34
3,AGAAAGGCATGGACCGGTTTTCCCGGTAATCCGTATTTGGT (site AGAAAGGCTAT),0.986
4,AGAAAGGCATGGACCGGTTTTCCCGGTAATCCGTATTTGTT (site AGAAAGGCTAA),1.99
5,AGAAAGGCATGGACCGGTTTTCCCGGTAATCCGTATTTGTT (site AGAAAGGCTAC),0
6,AGAAAGGCATGGACCGGTTTTCCCGGTAATCCGTATTTGTT (site AGAAAGGCTAG),1.47
7,AGAAAGGCATGGACCGGTTTTCCCGGTAATCCGTATTTGTT (site AGAAAGGCTAT),0.97
8,AGAAAGTCATGGACCGGTTTTCCCGGTAATCCGTATTTGCA (site AGAAAGTCTTG),2.65
9,AGAAAGTCATGGACCGGTTTTCCCGGTAATCCGTATTTGCA (site AGGAAGACTTG),0
10,AGAAATCCATGGACCGGTTTTCCCGGTAATCCGTATTTGTT (site AGAAATCCTAA),0.589
11,AGAAATCCATGGACCGGTTTTCCCGGTAATCCGTATTTGTT (site CGGAATCCTAA),0.00278
12,AGAAATGCATGGACCGGTTTTCCCGGTAATCCGTATTTGAG (site AGAAATGCTCT),2.88
13,AGAAATGCATGGACCGGTTTTCCCGGTAATCCGTATTTGCC (site AGAAATGCTGG),1.67
14,AGAATGCCATGGACCGGTTTTCCCGGTAATCCGTATTTGAC (site AGAATGCCTGT),0
15,AGACACCCATGGACCGGTTTTCCCGGTAATCCGTATTTGCA (site AGACACCCTTG),1.15
16,AGACGAGCATGGACCGGTTTTCCCGGTAATCCGTATTTGCG (site AGACGAGCTCG),2.67
17,AGACTTGCATGGACCGGTTTTCCCGGTAATCCGTATTTGTA (site AGACTTGCTTA),0.887
18,AGAGCGACATGGACCGGTTTTCCCGGTAATCCGTATTTGTG (site AGAGCGACTCA),1.49
19,AGAGGGTCATGGACCGGTTTTCCCGGTAATCCGTATTTGGT (site AGAGGGTCTAC),2.54
20,AGAGGTCCATGGACCGGTTTTCCCGGTAATCCGTATTTGTG (site AGAGGTCCTCA),0.00302
21,AGAGTACCATGGACCGGTTTTCCCGGTAATCCGTATTTGCA (site ACAGTATCTTG),1.61
22,AGAGTACCATGGACCGGTTTTCCCGGTAATCCGTATTTGCA (site AGAGTACCTTG),0

row,Sequence,recombinant UMI read abundance (log10)
1,AGAGTTACATGGACCGGTTTTCCCGGTAATCCGTATTTGGC (site AGAGTTACTGC),2.43
2,AGATATACATGGACCGGTTTTCCCGGTAATCCGTATTTGTT (site AGATATACTAA),1.74
3,AGATCATCATGGACCGGTTTTCCCGGTAATCCGTATTTGCA (site AGATCATCTTG),2.25
4,AGATCATCATGGACCGGTTTTCCCGGTAATCCGTATTTGCA (site CGATCATCTAG),0
5,AGATCTACATGGACCGGTTTTCCCGGTAATCCGTATTTGTG (site AAATCTACTCA),0.223
6,AGATCTACATGGACCGGTTTTCCCGGTAATCCGTATTTGTG (site ACATCTACTCA),0.0151
7,AGATCTACATGGACCGGTTTTCCCGGTAATCCGTATTTGTG (site AGATCTACTCA),0.215
8,AGATCTACATGGACCGGTTTTCCCGGTAATCCGTATTTGTG (site ATATCTACTCA),0.00795
9,AGATCTTCATGGACCGGTTTTCCCGGTAATCCGTATTTGCT (site AGATCTTCTAG),1.45
10,AGATCTTCATGGACCGGTTTTCCCGGTAATCCGTATTTGCT (site CGATCATCTAG),0
11,AGATGTACATGGACCGGTTTTCCCGGTAATCCGTATTTGAC (site AGATGTACTGT),1.96
12,AGATTCCCATGGACCGGTTTTCCCGGTAATCCGTATTTGTG (site AGATTCCCTCA),0.348
13,AGATTCCCATGGACCGGTTTTCCCGGTAATCCGTATTTGTG (site AGCTTCCCTCA),0.0129
14,AGATTCCCATGGACCGGTTTTCCCGGTAATCCGTATTTGTG (site AGGTTCCCTCA),0.0134
15,AGATTCCCATGGACCGGTTTTCCCGGTAATCCGTATTTGTG (site AGTTTCCCTCA),0.0189
16,AGCAAGACATGGACCGGTTTTCCCGGTAATCCGTATTTGCA (site AGAAAGACTTG),1.86
17,AGCAAGACATGGACCGGTTTTCCCGGTAATCCGTATTTGCA (site AGCAAGACTTG),2.01
18,AGCAAGACATGGACCGGTTTTCCCGGTAATCCGTATTTGCA (site AGGAAGACTTG),0.969
19,AGCAAGACATGGACCGGTTTTCCCGGTAATCCGTATTTGCA (site AGTAAGACTTG),0.542
20,AGCACATCATGGACCGGTTTTCCCGGTAATCCGTATTTGGG (site AGCACATCTCC),0.0655
21,AGCACCACATGGACCGGTTTTCCCGGTAATCCGTATTTGCA (site AGCACCACTTG),2.15
